Measurements: EP1038864A1, “NOVEL METALLOPROTEINASE INHIBITORS” (FUJI YAKUHIN KOGYO KABUSHIKI KAISHA, priority 1997, dated 1999)
Where two headings read alike, the source gives them in different places.

Assays:
[1] = target: T1, human fibroblast collagenase (Homo sapiens, UniProt P03956); experiment: Assay for inhibition of collagenase (fluorescein-labeled bovine type I collagen substrate); assay type: biochemical; conditions: activated human fibroblast procollagenase, 35°C, 2 hours, pH 7.5; read-out: Inhibition of MMP-1
T1 sequence (P03956 100-469): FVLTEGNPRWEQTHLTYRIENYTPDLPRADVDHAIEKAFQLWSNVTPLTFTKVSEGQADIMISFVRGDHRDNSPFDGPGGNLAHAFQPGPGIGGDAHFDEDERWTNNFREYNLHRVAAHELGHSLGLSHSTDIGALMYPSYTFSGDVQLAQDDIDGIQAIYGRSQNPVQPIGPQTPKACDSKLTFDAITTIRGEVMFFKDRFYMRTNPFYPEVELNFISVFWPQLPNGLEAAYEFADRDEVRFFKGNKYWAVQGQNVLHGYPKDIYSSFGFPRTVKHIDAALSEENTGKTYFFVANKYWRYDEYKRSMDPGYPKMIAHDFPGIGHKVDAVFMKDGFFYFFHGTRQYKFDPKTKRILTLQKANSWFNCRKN
Protocol: (§1) Described below are assays for biological activities of the compounds according to the present invention, formulations, dosage forms and dosage levels thereof, and miscellaneous matters. The efficacy of the compounds represented by the formula (I) according to the present invention as inhibitors of human fibroblast collagenase (metalloproteinase involved in the breakdown of tissues) is determined by a procedure based on the method of Y. Murawaki et al., Journal of Hepatology, 18, p328-334 (1993). The efficacy of the compounds (I) of this invention as inhibitors of human fibroblast stromelysin is determined by a procedure based on the method of S. S. Twining, Anal. Biochem., 143, p30 (1984). The assay results obtained are shown hereinbelow, together with biological examples which illustrate embodiments of the assay protocols.
The efficacy of compounds of the present invention to act as inhibitors of human fibroblast collagenase was determined by the procedure of Y. Murawaki et al. (Journal of Hepatology, 18, p.328-334, 1993), compared with a reference compound.
Procollagenase was activated by incubation with 2 mM 4-aminophenylmercuric acetate (APMA) at 35°C for 2 hours. The inhibition was assayed using, as a substrate, fluorescein-labeled bovine type I collagen. To a solution of the substrate (0.5 mg/ml) in a 50 mM Tris-HCl buffer, pH 7.5, containing 0.4M aqueous sodium chloride and 10 mM aqueous […] was added the activated collagenase. The resultant solution was incubated at 35°C for 2 hours. The digestion of the substrate with the enzyme was stopped by addition of 80 mM o-phenanthroline, followed by addition of a porcine elastase solution formed by dissolving 25 µg/ml porcine elastase in the aforementioned Tris-HCl buffer. The mixture was incubated at 37°C for 10 minutes. To the resulting solution was added 70% ethanol, and a 170 mM Tris-HCl buffer, pH 9.5, containing 0.67M aqueous sodium chloride. Undigested substrates were precipitated by centrifugation at 3000 x g for 20 minutes. The supernatant was collected and the fluorescence was read using an excitation wavelength of 495 nm and an emission wavelength of 520 nm. The inhibitory potency of the compounds was calculated. […] The resulting assay data for representative examples are shown in Table 1, compared with the reference compound. […]

[2] = target: human fibroblast stromelysin (Homo sapiens, UniProt P08254); experiment: Assay for inhibition of stromelysin (fluorescein-labeled casein substrate); assay type: biochemical
Protocol: as §1
The efficacy of compounds of the present invention to act as inhibitors of human fibroblast stromelysin was determined by the procedure of Twining (Anal. Biochem., 143, p.30, 1984), compared with a reference compound.
Prostromelysin was activated by incubation with 20 µg/ml human plasmin at 37°C for 2 hours, and the reaction was stopped by addition of 2.8 mg/ml aqueous diisopropyl fluorophosphate. The inhibition was assayed using, as a substrate, fluorescein-labeled casein. To a solution of the substrate (1 mg/ml) in a 50 mM Tris-HCl buffer, pH 7.8, containing 10mM aqueous calcium chloride was added the activated stromelysin. The resultant solution was incubated at 37°C for 2 hours. The digestion of the substrate with the enzyme was stopped by addition of 5% trichloroacetic acid. Undigested substrates were precipitated by centrifugation at 3000 x g for 20 minutes. The supernatant was collected, followd by additon of a 0.5M Tris-HCl buffer, pH 8.5. The fluorescence was read using an excitation wavelength of 495 nm and an emission wavelength of 520 nm. The inhibitory potency of the compounds was calculated. […] The resulting assay data for representative examples are shown in Table 2, compared with the reference compound.

TNF-α Convertase = TNF-α Convertase (Homo sapiens, UniProt P78536); experiment: Assay for inhibition of TNF-α production in LPS-stimulated, PMA-differentiated U937 cells
Protocol: Human monocytic leukemia cell line U937 (human histiocytic lymphoma cell line U937) cells were cultured in RPMI 1640 (Nissui Pharmaceutical Co., Ltd., Japan) supplemented with 5% fetal calf serum (FCS; IBL, Japan) in an incubator at 37°C under 5% CO2, then transferred to multiplates at a density of 1 x 10^6 cells/1 ml/well, and incubated overnight in the presence of 10^-7 M phorbol 12-myristate 13-acetate (Wako Pure Chemical Industries, Ltd., Japan) to form differentiated macrophage-like cells. To the resultant cells was added E. coli O127:B8 lipopolysaccaride (LPS, 0.1 µg/ml; Sigma) alone or along with each compound of the present invention, and the treated cells were then incubated for 6 hours in an incubator under 5% CO2 at 37°C. After the incubation, the cultures were collected and centrifuged at 3000 rpm for 10 minutes to give supernatants which were diluted with purified water and then assayed using a TNF-α assay kit, Genzyme (Table 3).

[3] = plasmin-activated human fibroblast prostromelysin, 37°C, 2 hours, pH 7.8, read-out: Inhibition of MMP-3

human fibroblast stromelysin, sequence (P08254 100-477): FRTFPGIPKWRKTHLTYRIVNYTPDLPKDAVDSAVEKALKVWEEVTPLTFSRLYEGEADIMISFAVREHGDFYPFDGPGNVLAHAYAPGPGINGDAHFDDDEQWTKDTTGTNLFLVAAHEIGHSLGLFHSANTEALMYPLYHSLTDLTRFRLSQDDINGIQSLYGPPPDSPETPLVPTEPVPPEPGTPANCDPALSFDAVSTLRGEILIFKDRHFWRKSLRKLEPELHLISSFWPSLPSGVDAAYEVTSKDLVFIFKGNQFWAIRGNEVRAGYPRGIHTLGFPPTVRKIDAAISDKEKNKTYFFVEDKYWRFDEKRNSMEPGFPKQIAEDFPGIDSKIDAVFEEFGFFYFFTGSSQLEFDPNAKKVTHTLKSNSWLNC
TNF-α Convertase, sequence (P78536 215-824): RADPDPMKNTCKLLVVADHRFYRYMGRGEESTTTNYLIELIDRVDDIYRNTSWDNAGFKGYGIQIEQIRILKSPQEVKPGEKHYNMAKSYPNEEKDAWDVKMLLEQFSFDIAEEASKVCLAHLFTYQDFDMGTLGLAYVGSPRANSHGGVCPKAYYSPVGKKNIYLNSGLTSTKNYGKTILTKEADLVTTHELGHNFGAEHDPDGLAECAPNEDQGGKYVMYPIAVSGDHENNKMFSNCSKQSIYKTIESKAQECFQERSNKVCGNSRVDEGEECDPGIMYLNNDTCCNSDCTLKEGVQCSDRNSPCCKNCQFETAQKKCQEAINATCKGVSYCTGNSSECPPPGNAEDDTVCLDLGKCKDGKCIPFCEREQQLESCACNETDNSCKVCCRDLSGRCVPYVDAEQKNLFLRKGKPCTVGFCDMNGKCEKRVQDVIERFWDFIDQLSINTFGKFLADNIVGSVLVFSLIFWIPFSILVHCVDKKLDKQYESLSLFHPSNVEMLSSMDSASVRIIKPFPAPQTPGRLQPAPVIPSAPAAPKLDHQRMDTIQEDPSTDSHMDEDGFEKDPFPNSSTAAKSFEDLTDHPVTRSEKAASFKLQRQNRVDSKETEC

CNC(=O)C(CCNC(=N)N)NC(=O)C(CC(C)C)C(C)C(=O)NO (single isomer, unassigned) [Compound No. 28, N^4-[3-Guanidino-1(S)-methylcarbamoylpropyl]-N^1-hydroxy-3(R)-isobutyl-2(R or S)-methylsuccinamide · 1 acetate]
IC50 [1]: 10 nM

CC(C)CC(C(=O)NC(CCCN)C(=O)NC1CC1)C(C)C(=O)NO (single isomer, unassigned) [Compound No. 37, N^a-[4-(Hydroxyamino)-2(R)-isobutyl-3(R or S)-methylsuccinyl]-L-ornithine N-cyclopropylamide · 1 acetate]
IC50 [2, 3]: 50 nM

CNC(=O)C(Cc1ccc(CN)cc1)NC(=O)C(CC(C)C)C(CCCc1ccccc1)C(=O)NO (single isomer, unassigned) [Compound No. 47, N^a-[4-(Hydroxyamino)-2(R)-isobutyl-3(R or S)-(3-phenylpropyl)succinyl]-4'-aminomethyl-L-phenylalanine N-methylamide · 1 acetate]
IC50 (TNF-α Convertase): 210 nM

CNC(=O)[C@H](CCCNC(=N)N)NC(=O)[C@H](CC(C)C)C(Cc1ccc(CNS(C)(=O)=O)cc1)C(=O)NO (single isomer, unassigned) [Compound No. 52, N^a-[4-(Hydroxyamino)-2(R)-isobutyl-3(R or S)-(p-methanesulfonamidomethylbenzyl)succinyl]-L-arginine N-methylamide· 1 acetate]
IC50 [2]: 23 nM

CNC(=O)[C@H](CCCNC(=N)N)NC(=O)[C@H](CC(C)C)C(CCOc1ccccc1)C(=O)NO (single isomer, unassigned) [Compound No. 54, N^a-[4-(Hydroxyamino)-2(R)-isobutyl-3(R or S)-(2-phenoxyethyl)succinyl]-L-arginine N-methylamide· 1 acetate]
IC50 [2]: 10 nM
IC50 (TNF-α Convertase): 340 nM

CNC(=O)C(CCCNC(=N)N)NC(=O)C(CC(C)C)C(CCCC1CCCCC1)C(=O)NO (single isomer, unassigned) [Compound No. 55, N^a-[4-(Hydroxyamino)-2(R)-isobutyl-3(R or S)-(3-cyclohexylpropyl)succinyl]-L-arginine N-methylamide · 1 acetate]
IC50 (TNF-α Convertase): 279 nM

CNC(=O)[C@H](C)NC(=O)[C@H](CC(C)C)C(CCCCCNC(C)=N)C(=O)NO (single isomer, unassigned) [Compound No. 62, N^a-[4-(Hydroxyamino)-2(R)-isobutyl-3(R or S)-[5-(acetimidoylimino)pentyl]succinyl]-L-alanine N-methylamide]
IC50 (TNF-α Convertase): 2890 nM

CNC(=O)[C@H](CCCCN)NC(=O)[C@H](CC(C)C)C(CCCc1ccc(C(=O)OC)cc1)C(=O)NO (single isomer, unassigned) [Compound No. 65, N^a-[4-(Hydroxyamino)-2(R)-isobutyl-3(R or S)-[3-(p-methoxycarbonylphenyl)propyl]succinyl]-L-lysine N-methylamide· 1 acetate]
IC50 (TNF-α Convertase): 421 nM

CNC(=O)[C@H](CCCCN)NC(=O)[C@H](CC(C)C)C(CCCc1ccc(C(=O)O)cc1)C(=O)NO (single isomer, unassigned) [Compound No. 67, N^a-[4-(Hydroxyamino)-2(R)-isobutyl-3(R or S)-[3-(p-carboxyphenyl)propyl]succinyl]-L-lysine N-methylamide]
IC50 (TNF-α Convertase): 527 nM

CNC(=O)[C@H](CCCCN)NC(=O)[C@H](CC(C)C)C(CCCCCCCCO)C(=O)NO (single isomer, unassigned) [Compound No. 68, N^a-[4-(Hydroxyamino)-2(R)-isobutyl-3(R or S)-(8-hydroxyoctyl)-succinyl]-L-lysine N-methylamide· 1 acetate]
IC50 [2]: 14 nM

CNC(=O)[C@H](CCCCN)NC(=O)[C@H](CC(C)C)C(CCOCC(C)C)C(=O)NO (single isomer, unassigned) [Compound No. 70, N^a-[4-(Hydroxyamino)-2(R)-isobutyl-3(R or S)-(2-isobutyloxyethyl)succinyl]-L-lysine N-methylamide· 1 acetate]
IC50 [2]: 28 nM

CNC(=O)[C@H](CCCCN)NC(=O)[C@H](CC(C)C)C(CCCN1CCOCC1)C(=O)NO (single isomer, unassigned) [Compound No. 73, N^a-[4-(Hydroxyamino)-2(R)-isobutyl-3(R or S)-[3-(morpholin-4-yl)propyl]succinyl]-L-lysine N-methylamide· 1 acetate]
IC50 [1]: 11 nM

CNC(=O)[C@H](CCN)NC(=O)[C@H](CC(C)C)C(CCCc1ccc(CN)cc1)C(=O)NO (single isomer, unassigned) [Compound No. 78, N^4-[3-Amino-1(S)-methylcarbamoylpropyl)-N^1-hydroxy-2(R or S)-[3-(p-aminomethylphenyl)propyl]-3(R)-isobutylsuccinamide· 2 acetate]
IC50 [1]: 18 nM

CNC(=O)[C@@H](NC(=O)[C@H](CC(C)C)C(CCCc1ccc(CN)cc1)C(=O)NO)C(C)(C)C (single isomer, unassigned) [Compound No. 79, N^a-[4-(Hydroxyamino)-2(R)-isobutyl-3(R or S)-[3-(p-aminomethylphenyl)propyl]succinyl]-L-tert-leucine N-methylamide· 1 acetate]
IC50 [1]: 5 nM

CNC(=O)[C@H](CCCN)NC(=O)[C@H](CC(C)C)C(CCCc1ccc(CN)cc1)C(=O)NO (single isomer, unassigned) [Compound No. 80, N^a-[4-(Hydroxyamino)-2(R)-isobutyl-3(R or S)-[3-(p-aminomethylphenyl)propyl]succinyl]-L-ornithine N-methylamide· 1 acetate]
IC50 [1]: 9 nM

CC(C)CC(C(=O)NO)C(CC(C)C)C(=O)NC(Cc1ccc(CN)cc1)C(=O)NCCN(C)C (single isomer, unassigned) [Compound No. 89, N^a-[4-(Hydroxyamino)-2(R),3(R or S)-diisobutylsuccinyl]-4'-aminomethyl-L-phenylalanine N-(2-N',N'-dimethylaminoethyl)amide· 2 acetate]
IC50 (TNF-α Convertase): 1900 nM

CNC(=O)C(CCNC(=N)N)NC(=O)C(CC(C)C)C(CCCc1ccccc1)C(=O)NO [Compound No. 26, N^4-[3-Guanidino-1(S)-methylcarbamoylpropyl]-N^1-hydroxy-3(R)-isobutyl-2-(RS)-(3-phenylpropyl)succinamide · 1 acetate]
IC50 [2]: 40 nM

CC(C)CC(C(=O)NO)C(CC(C)C)C(=O)NC(Cc1ccc(CN)cc1)C(=O)NCCO [Compound No. 35, N^a-[4-(Hydroxyamino)-2(R),3(RS)-diisobutylsuccinyl]-4'-aminomethyl-L-phenylalanine N-(2-hydroxyethyl)amide · 1 acetate]
IC50 [2, 3]: 19 nM

CNC(=O)[C@H](C)NC(=O)[C@H](CC(C)C)C(CCCc1ccc(CN)cc1)C(=O)NO (stereo partly drawn) [Compound No. 58, N^a-[4-(Hydroxyamino)-2(R)-isobutyl-3(RS)-[3-(p-aminomethylphenyl)propyl]succinyl]-L-alanine N-methylamide · 1 acetate]
IC50 (TNF-α Convertase): 942 nM
